Test results taken from ChEMBL document CHEMBL1201862, “PubChem BioAssay data set” (2004).
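Values below derive from 48-hour exposures of cells grown in 96-well plates, with endpoints linearly interpolated between the two concentrations bracketing the appropriate inhibition level. Here, GI50 denotes the concentration required for 50% inhibition of growth.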 Activity calls are given as the source filed them. No stated cut-off is given here; in the data, active = GI50 up to about 1.1 µM and inactive = higher.

How the values were obtained:
Assay in all cases: NCI tumour cell line growth inhibition, 48 h
786-0 = tested on: 786-0
A498 = tested on: A498
ACHN = tested on: ACHN
COLO 205 = tested on: COLO 205
HCT-116 = tested on: HCT-116
HL-60 = tested on: HL-60
MOLT-4 = tested on: MOLT-4
Malme-3M = tested on: Malme-3M
NCI-H226 = tested on: NCI-H226
NCI-H23 = tested on: NCI-H23
NCI-H460 = tested on: NCI-H460
SK-MEL-28 = tested on: SK-MEL-28
SK-MEL-2 = tested on: SK-MEL-2
SNB-19 = tested on: SNB-19
UACC-62 = tested on: UACC-62
UO-31 = tested on: UO-31
SN12C = tested on: SN12C

| Structure (SMILES) | GI50 (786-0) | GI50 (A498) | GI50 (ACHN) | GI50 (COLO 205) | GI50 (HCT-116) | GI50 (HL-60) | GI50 (MOLT-4) | GI50 (Malme-3M) | GI50 (NCI-H226) | GI50 (NCI-H23) | GI50 (NCI-H460) | GI50 (SK-MEL-28) | GI50 (SK-MEL-2) | GI50 (SNB-19) | GI50 (UACC-62) | GI50 (UO-31) | GI50 (SN12C) |
| --- | --- | --- | --- | --- | --- | --- | --- | --- | --- | --- | --- | --- | --- | --- | --- | --- | --- |
| O=C(N/N=C(\c1nc2ccc(Cl)cc2nc1O)C(O)c1ccccc1Cl)c1ccncc1 (configuration not stated) | > 100 µM (inactive) | > 100 µM (inactive) | > 100 µM (inactive) | > 100 µM (inactive) | > 100 µM (inactive) | > 100 µM (inactive) | > 100 µM (inactive) | > 100 µM (inactive) | > 100 µM (inactive) | > 100 µM (inactive) | > 100 µM (inactive) | > 100 µM (inactive) | > 100 µM (inactive) | > 100 µM (inactive) | > 100 µM (inactive) | > 100 µM (inactive) |  |
| CC(=O)NC1=C(NC(C)(C)C)C(=O)c2ccccc2C1=O | 3.4 µM (inactive) | 23.1 µM (inactive) | 86.1 µM (inactive) | 83.4 µM (inactive) | 28.7 µM (inactive) | 2.23 µM (inactive) | 6.43 µM (inactive) | 19.5 µM (inactive) | 14.5 µM (inactive) | 18.7 µM (inactive) | 19.2 µM (inactive) | 25.4 µM (inactive) | 20.6 µM (inactive) | 43.2 µM (inactive) | 13.7 µM (inactive) | 18.2 µM (inactive) | 18.2 µM (inactive) |
| Cc1cccc(-n2c(=S)[nH]c3c(sc(=O)n3-c3ccccc3C)c2=O)c1 | > 100 µM (inactive) | > 100 µM (inactive) | > 100 µM (inactive) | > 100 µM (inactive) | > 100 µM (inactive) | > 100 µM (inactive) | > 100 µM (inactive) | > 100 µM (inactive) | > 100 µM (inactive) | > 100 µM (inactive) | > 100 µM (inactive) | > 100 µM (inactive) | > 100 µM (inactive) | > 100 µM (inactive) | > 100 µM (inactive) | > 100 µM (inactive) | > 100 µM (inactive) |
| O=c1[nH]cnc2[nH]nnc12 | 3.27 µM (inactive) | 57 µM (inactive) | 12 µM (inactive) | 47.1 µM (inactive) | 2.1 µM (inactive) | 0.323 µM (active) | 0.726 µM (active) | 1.41 µM (inactive) | 5.6 µM (inactive) | 35.6 µM (inactive) | 8.65 µM (inactive) | 4.46 µM (inactive) | 0.386 µM (active) | 88.5 µM (inactive) | 0.968 µM (active) | 2.73 µM (inactive) | 1.93 µM (inactive) |
| COC(=O)/C(=N/NC(C)(C)C)C(C(=O)OC)C(=O)C(=O)Nc1nc2ccc([N+](=O)[O-])cc2s1 (configuration not stated) | > 100 µM (inactive) | 23.6 µM (inactive) | > 100 µM (inactive) | > 100 µM (inactive) | > 100 µM (inactive) | > 100 µM (inactive) | > 100 µM (inactive) | > 100 µM (inactive) | > 100 µM (inactive) | > 100 µM (inactive) | > 100 µM (inactive) | > 100 µM (inactive) | > 100 µM (inactive) | > 100 µM (inactive) | > 100 µM (inactive) | > 100 µM (inactive) | > 100 µM (inactive) |
| CCCC/C(C)=N/NC(N)=S | > 100 µM (inactive) | > 100 µM (inactive) | > 100 µM (inactive) | > 100 µM (inactive) | > 100 µM (inactive) | 14.5 µM (inactive) | > 100 µM (inactive) | > 100 µM (inactive) | > 100 µM (inactive) | > 100 µM (inactive) | > 100 µM (inactive) | > 100 µM (inactive) | > 100 µM (inactive) | > 100 µM (inactive) | > 100 µM (inactive) | > 100 µM (inactive) | > 100 µM (inactive) |
| C1=CC=C2NCCSCC/N=C3/C=CC=CC=C3NCCSCC/N=C\2C=C1 | > 100 µM (inactive) | > 100 µM (inactive) | > 100 µM (inactive) | > 100 µM (inactive) | > 100 µM (inactive) | > 100 µM (inactive) | > 100 µM (inactive) | > 100 µM (inactive) | > 100 µM (inactive) | > 100 µM (inactive) | > 100 µM (inactive) | > 100 µM (inactive) | > 100 µM (inactive) | > 100 µM (inactive) | > 100 µM (inactive) | > 100 µM (inactive) | > 100 µM (inactive) |
| CC(=O)/C=C\C(=O)NNS(=O)(=O)c1ccc(C)cc1 | > 100 µM (inactive) | > 100 µM (inactive) | > 100 µM (inactive) | > 100 µM (inactive) | > 100 µM (inactive) | > 100 µM (inactive) | > 100 µM (inactive) | > 100 µM (inactive) | > 100 µM (inactive) | > 100 µM (inactive) | > 100 µM (inactive) | > 100 µM (inactive) | > 100 µM (inactive) | > 100 µM (inactive) | > 100 µM (inactive) | > 100 µM (inactive) | > 100 µM (inactive) |
| COC(=O)CC(C(C(=O)OCc1ccccc1)C(C)O)N1C(=O)OCC1c1ccccc1 (configuration not stated) | > 100 µM (inactive) | 22.2 µM (inactive) | 63.2 µM (inactive) | 48.4 µM (inactive) | > 100 µM (inactive) | 34.2 µM (inactive) | 29.4 µM (inactive) | > 100 µM (inactive) | 31.6 µM (inactive) | 60.1 µM (inactive) | 68.2 µM (inactive) | > 100 µM (inactive) | > 100 µM (inactive) | 75.2 µM (inactive) | 35.6 µM (inactive) | 24.3 µM (inactive) | > 100 µM (inactive) |
| O=C(Nc1ccc(C(F)(F)F)cc1[N+](=O)[O-])C(=O)Nn1c(S)nc2ccccc2c1=O |  | > 100 µM (inactive) | > 100 µM (inactive) | > 100 µM (inactive) | > 100 µM (inactive) | > 100 µM (inactive) | > 100 µM (inactive) | > 100 µM (inactive) | > 100 µM (inactive) | > 100 µM (inactive) | > 100 µM (inactive) | > 100 µM (inactive) | > 100 µM (inactive) | > 100 µM (inactive) | > 100 µM (inactive) | > 100 µM (inactive) | > 100 µM (inactive) |
| O=C1C(c2ccccc2)=[N+]([O-])c2cc([N+](=O)[O-])ccc21 | 26.3 µM (inactive) | 27.6 µM (inactive) | 24.9 µM (inactive) | 21.5 µM (inactive) | 23.8 µM (inactive) | 7.52 µM (inactive) | 18.7 µM (inactive) | 20.6 µM (inactive) | 73.3 µM (inactive) | 43.6 µM (inactive) | 24.7 µM (inactive) | 22.6 µM (inactive) | > 100 µM (inactive) | 57 µM (inactive) | 13.1 µM (inactive) | 52.1 µM (inactive) | 25.6 µM (inactive) |
| CCC/C(=N\NC(=O)c1cc2ccccc2cc1O)C(CC)C(=O)CCC(=O)N(Cc1ccccc1)Cc1ccccc1 (configuration not stated) | 25.7 µM (inactive) | 85.9 µM (inactive) | 33.5 µM (inactive) | 28.5 µM (inactive) | 41 µM (inactive) | 13 µM (inactive) | 30.7 µM (inactive) | 50.1 µM (inactive) | 47.3 µM (inactive) | 76.2 µM (inactive) | 35.6 µM (inactive) | > 100 µM (inactive) | 28.6 µM (inactive) | 27.7 µM (inactive) | 11.2 µM (inactive) | 54 µM (inactive) | 63.2 µM (inactive) |
